This note sets out measurements from US9884063B2, “Amido-substituted azole compounds” (Bayer Pharma Aktiengesellschaft, priority 2014, dated 2018).

Counter-ions that a name gives are not always drawn.

One test has as its target T1, TNKS1 (Homo sapiens, UniProt O95271).
T1 sequence (O95271 1-1327): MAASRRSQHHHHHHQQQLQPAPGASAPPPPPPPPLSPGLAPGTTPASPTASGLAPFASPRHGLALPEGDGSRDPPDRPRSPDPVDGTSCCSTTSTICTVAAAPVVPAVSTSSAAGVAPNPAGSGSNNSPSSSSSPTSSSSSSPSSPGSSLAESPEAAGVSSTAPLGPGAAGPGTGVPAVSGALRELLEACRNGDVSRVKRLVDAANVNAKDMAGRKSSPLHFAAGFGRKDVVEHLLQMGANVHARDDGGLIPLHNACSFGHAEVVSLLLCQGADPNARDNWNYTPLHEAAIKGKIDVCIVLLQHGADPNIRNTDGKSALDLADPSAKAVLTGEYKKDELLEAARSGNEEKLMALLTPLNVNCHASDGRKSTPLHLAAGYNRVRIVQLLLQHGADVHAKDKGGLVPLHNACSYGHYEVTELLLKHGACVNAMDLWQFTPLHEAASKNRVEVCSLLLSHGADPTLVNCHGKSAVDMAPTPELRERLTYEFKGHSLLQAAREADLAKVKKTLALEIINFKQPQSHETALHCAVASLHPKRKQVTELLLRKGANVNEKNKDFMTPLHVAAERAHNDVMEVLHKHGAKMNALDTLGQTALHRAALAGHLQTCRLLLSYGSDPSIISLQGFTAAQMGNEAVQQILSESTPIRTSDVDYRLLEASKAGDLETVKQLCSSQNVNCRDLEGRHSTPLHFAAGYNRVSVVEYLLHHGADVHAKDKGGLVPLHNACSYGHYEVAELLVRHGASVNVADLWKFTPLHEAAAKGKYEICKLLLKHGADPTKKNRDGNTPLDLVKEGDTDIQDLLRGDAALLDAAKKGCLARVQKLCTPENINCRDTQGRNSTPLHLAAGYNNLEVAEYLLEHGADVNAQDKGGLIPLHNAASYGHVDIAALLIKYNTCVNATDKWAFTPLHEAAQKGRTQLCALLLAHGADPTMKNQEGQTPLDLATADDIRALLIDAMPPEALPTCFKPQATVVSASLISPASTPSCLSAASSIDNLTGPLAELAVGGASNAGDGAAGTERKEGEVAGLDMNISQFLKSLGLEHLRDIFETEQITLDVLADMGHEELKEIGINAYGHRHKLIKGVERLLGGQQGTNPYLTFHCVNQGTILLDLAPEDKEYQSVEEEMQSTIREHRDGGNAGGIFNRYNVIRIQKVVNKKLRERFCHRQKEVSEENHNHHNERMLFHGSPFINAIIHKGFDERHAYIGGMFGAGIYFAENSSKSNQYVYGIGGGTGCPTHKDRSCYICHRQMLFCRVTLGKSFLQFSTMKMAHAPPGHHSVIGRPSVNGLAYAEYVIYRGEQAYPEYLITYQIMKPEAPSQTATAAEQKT
Nature of the test: Modified TNKS1 Assay 3 (BPS kit #80573, biotin-NAD+, 96 well). It counts as biochemical. Particulars: human TNKS1, BPS kit #80573, 96 well. The procedure:
The potency of the compounds against human TNKS1 according to the invention was assessed using a commercially available biotin/streptavidin binding assay kits from BPS Bioscience, San Diego, USA (Catalog #80573 for TNKS1). The incorporation of a biotin-labeled NAD+ during the […] catalyzed ribosylation of a suitable protein substrate was detected using with a streptavidin-HRP coupled chemi-luminescent readout. The intensity of the readout signal is proportional to the incorporated NAD^+. Inhibition of TNKS1 leads to a decreased incorporation of NAD^+ and consequently to a lower readout signal intensity in the corresponding TNKS1 assays. The concentration of a test compound that inhibits the enzyme activity by 50% (corresponds to half of the normed readout signal intensity) is reported as IC50. The assay was conducted in a 96 well MTP format according to the manufacturer's protocol and using a BMG Pherastar MTP reader [BMG-Labtech, Offenburg, Germany].

Test [1] relates to wildtype Wnt signaling cascade. Nature of the test: HEK293 TOP Assay (Super TopFlash luciferase reporter, Wnt-3a stimulated). The conditions noted are these: Homo sapiens, HEK293 TOP reporter cell line, Wnt-3a at EC50, 16 hours incubation, compound dilution series 50 μM to 15 nM. The class given is cell-based. In outline:
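HEK293 cells stably carrying Super TopFlash (TOP) or FOP reporter, stimulated with recombinant human Wnt-3a (2500–5 ng/ml, two-fold steps). Both lines incubated in parallel with compound from 50 μM to 15 nM (3.16-fold) in CAFTY buffer pH 7.4 with 2 mM Ca2+ and 0.01% BSA; selectivity judged TOP vs FOP.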
Background: In a reporter assay the amount or activity of a reporter protein is the signal.

Test [2] concerns HEK293 FOP control reporter cell line. The test is described as follows: HEK293 FOP Assay (FOP control vector luciferase reporter). The class given is cell-based. Particulars: Homo sapiens, HEK293 FOP control reporter cell line, 16 hours incubation, compound dilution series 50 μM to 15 nM. In outline:
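Stable HEK293 line carrying the FOP vector (randomized, non-functional TCF sites; Geneticin-selected) was run in parallel with the TOP line. Cells were plated 24 h ahead at 10000/well and given recombinant human Wnt-3a at 2500–5 ng/ml. Compounds were tested at 50 μM–15 nM (3.16-fold steps) in CAFTY buffer, pH 7.4, with 2 mM Ca2+ and 0.01% BSA.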

`CN1CC2(C1)CN(C(=O)c1nc[nH]c1C(=O)Nc1ccc(NC(=O)c3cc(F)c(F)cc3Cl)cc1)C2` [Example 50, N N-{4-[(2-chloro-4,5-difluorobenzoyl)amino]phenyl}-4-[(6-methyl-2,6-diazaspiro[3.3]hept-2-yl)carbonyl]-1H-imidazole-5-carboxamide]: the IC50 (usually the concentration at which inhibition is half-maximal) stood at 130 nM on TNKS1; 120 nM in test [1] (HEK293, 16 h); 13000 nM in test [2].
Take `CN(C)CCNC(=O)c1nc[nH]c1C(=O)Nc1ccc(NC(=O)c2ccc(F)cc2Cl)nc1` [Example 109, N^5-{6-[(2-chloro-4-fluorobenzoyl)amino]pyridin-3-yl}-N^4-[2-(dimethylamino)ethyl]-1H-imidazole-4,5-dicarboxamide]: the IC50 at TNKS1 turned out to be 1 nM; in test [1] (HEK293, 16 h) it was 140 nM; in test [2], 43000 nM.
Consider `O=C(Nc1ccc(NC(=O)c2[nH]cnc2C(=O)NCCN2CCCCC2)cc1)c1ccc(F)cc1Cl` [Example 127, N^5-{4-[(2-chloro-4-fluorobenzoyl)amino]phenyl}-N^4-[2-(piperidin-1-yl)ethyl]-1H-imidazole-4,5-dicarboxamide hydrochloride], for which the IC50 on TNKS1 turned out to be 2 nM; in test [1], 10 nM; in test [2] (HEK293, 16 h) it was 50000 nM.
As to `CC(C)(C)NC(=O)c1[nH]cnc1C(=O)Nc1ccc(NC(=O)c2ccc(F)cc2Cl)cc1` [Example 133, N^5-tert-butyl-N^4-{4-[(2-chloro-4-fluorobenzoyl)amino]phenyl}-1H-imidazole-4,5-dicarboxamide], the IC50 against TNKS1 stood at 200 nM; in test [1] (HEK293, 16 h) it was 430 nM; in test [2], 8700 nM.
As for `O=C(Nc1ccc(NC(=O)c2nc[nH]c2C(=O)NCCCN2CCCC(O)C2)cc1)c1ccc(F)cc1Cl` (stereo not drawn) [Example 273, N^4-{4-[(2-chloro-4-fluorobenzoyl)amino]phenyl}-N^5-[3-(3-hydroxypiperidin-1-yl)propyl]-1H-imidazole-4,5-dicarboxamide], the IC50 against TNKS1 amounted to 30 nM; in test [1] (HEK293, 16 h), 1550 nM; in test [2], 21000 nM.
Taken in the same sequence, the figures for `O=C(Nc1ccc(NC(=O)c2nc[nH]c2C(=O)NCCN2CCC[C@H](F)C2)cc1)c1ccc(F)cc1Cl` [Example 276, N^4-{4-[(2-chloro-4-fluorobenzoyl)amino]phenyl}-N^5-{2-[(3S)-3-fluoropiperidin-1-yl]ethyl}-1H-imidazole-4,5-dicarboxamide] were 50 nM, 110 nM and 31000 nM.
Regarding `CC(C)(N)CCNC(=O)c1[nH]cnc1C(=O)Nc1ccc(NC(=O)c2ccccc2Cl)cc1` [Example 283, N^5-(3-amino-3-methylbutyl)-N^4-{4-[(2-chlorobenzoyl)amino]phenyl}-1H-imidazole-4,5-dicarboxamide hydrochloride salt], the IC50 against TNKS1 came out at 110 nM; in test [1] it was 840 nM; in test [2] (HEK293, 16 h), 50000 nM.
In the case of `O=C(Nc1ccc(NC(=O)c2nc[nH]c2C(=O)NCCCN2CCCCC2)cc1)c1ccc(F)cc1Cl` [Example 297, N^4-{4-[(2-chloro-4-fluorobenzoyl)amino]phenyl}-N^5-[3-(piperidin-1-yl)propyl]-1H-imidazole-4,5-dicarboxamide], the IC50 against TNKS1 is over 500 nM; in test [1] (HEK293, 16 h) it was 1050 nM; in test [2], 22500 nM.
In the case of `CN(C)CCCCCNC(=O)c1nc[nH]c1C(=O)Nc1ccc(NC(=O)c2ccc(F)cc2Cl)cc1` [Example 378, N^5-{4-[(2-chloro-4-fluorobenzoyl)amino]phenyl}-N^4-[5-(dimethylamino)pentyl]-1H-imidazole-4,5-dicarboxamide], the IC50 on TNKS1 amounted to 60 nM; in test [1] (HEK293, 16 h), 230 nM; in test [2] it was 27000 nM.
On to `CCN(CC)CCNC(=O)c1nc[nH]c1C(=O)Nc1ccc(NC(=O)c2ccc(F)cc2Cl)cc1` [Example 382, N^5-{4-[(2-chloro-4-fluorobenzoyl)amino]phenyl}-N^4-[2-(diethylamino)ethyl]-1H-imidazole-4,5-dicarboxamide], for which the IC50 against TNKS1 is 20 nM; in test [1] (HEK293, 16 h), 120 nM.
`CN1CCCC1CCNC(=O)c1nc[nH]c1C(=O)Nc1ccc(NC(=O)c2ccc(F)cc2Cl)cc1` (stereo not drawn) [Example 385, N^5-{4-[(2-chloro-4-fluorobenzoyl)amino]phenyl}-N^4-[2-(1-methylpyrrolidin-2-yl)ethyl]-1H-imidazole-4,5-dicarboxamide]: the IC50 at TNKS1 stood at 50 nM; in test [1] (HEK293, 16 h), 310 nM.
Turning to `CC1CCCCN1CCCNC(=O)c1nc[nH]c1C(=O)Nc1ccc(NC(=O)c2ccc(F)cc2Cl)cc1` (stereo not drawn) [Example 386, N^5-{4-[(2-chloro-4-fluorobenzoyl)amino]phenyl}-N^4-[3-(2-methylpiperidin-1-yl)propyl]-1H-imidazole-4,5-dicarboxamide], the IC50 on TNKS1 came to 60 nM; in test [1] (HEK293, 16 h), 460 nM; in test [2], 15000 nM.
As to `O=C(Nc1ccc(NC(=O)c2[nH]cnc2C(=O)NCCN2CCS(=O)(=O)CC2)cc1)c1ccc(F)cc1Cl` [Example 402, N^5-{4-[(2-chloro-4-fluorobenzoyl)amino]phenyl}-N^4-[2-(1,1-dioxidothiomorpholin-4-yl)ethyl]-1H-imidazole-4,5-dicarboxamide], the IC50 against TNKS1 was found to be 260 nM; in test [1] (HEK293, 16 h), 170 nM.
As to `CN1CCC(CNC(=O)c2nc[nH]c2C(=O)Nc2ccc(NC(=O)c3ccc(F)cc3Cl)cc2)CC1` [Example 408, N^5-{4-[(2-chloro-4-fluorobenzoyl)amino]phenyl}-N^4-[(1-methylpiperidin-4-yl)methyl]-1H-imidazole-4,5-dicarboxamide], the IC50 amounted to 80 nM on TNKS1 and 300 nM in test [1] (HEK293, 16 h).
Regarding `CCN1CCC(CNC(=O)c2nc[nH]c2C(=O)Nc2ccc(NC(=O)c3ccc(F)cc3Cl)cc2)C1` (stereo not drawn) [Example 411, N^5-{4-[(2-chloro-4-fluorobenzoyl)amino]phenyl}-N^4-[(1-ethylpyrrolidin-3-yl)methyl]-1H-imidazole-4,5-dicarboxamide], the IC50 against TNKS1 is 70 nM; in test [1] (HEK293, 16 h), 290 nM.
Take `CN(C)C(C)(C)CNC(=O)c1nc[nH]c1C(=O)Nc1ccc(NC(=O)c2ccc(F)cc2Cl)cc1` [Example 412, N^5-{4-[(2-chloro-4-fluorobenzoyl)amino]phenyl}-N^4-[2-(dimethylamino)-2-methylpropyl]-1H-imidazole-4,5-dicarboxamide]: the IC50 against TNKS1 is 30 nM; in test [1] (HEK293, 16 h), 140 nM.
